These results are taken from US20110236504A1, “VERSATILE DISINFECTANT” (priority 2008, published 2011).

The test system of experiment [1] is E. coli O-157. The experiment in a line: Metal ion or food preservative added to growth medium, viable count. Format: cell-based. Conditions: metal ion in growth medium. The procedure: (§1) To a standard medium for counting viable bacteria described below, each metal ion with varied concentration was added. […] Then, the number of viable bacteria was counted with time in a common procedure.
(§2) Sample bacteria: S. aureus 209P as a representative of Gram-positive bacteria • E. coli 0-157 as a representative of Gram-negative bacteria
(§3) Standard medium for counting viable bacteria: yeast extract 2.5 g, peptone 5 g, glucose 1 g, agar 15 g, pH 7.2

A further experiment relates to S. aureus 209P. Described as above. The experiment is classed as cell-based. The procedure: as §1, §2, §3
The test system of experiment [2] is E. coli O-157. The experiment is described as above. The experiment is classed as cell-based. Conditions: food preservative in growth medium.
Experiment [3] deals with sample bacteria (S. aureus 209P, E. coli O-157). The experiment in a line: Death rate over time, food preservative in purified water pH 3.0.
Where [4] appears, read: food preservative in growth medium.

Regarding `O=[N+]([O-])[O-].[Ag+]` [Ag^+, AgNO3], in the experiment with E. coli O-157 [1], the “(a) Antiproliferative activity, concentration” value (“(a) Antiproliferative activity” below) is listed as 0.05~2 ppm; the “(b) Bacteriostatic activity, concentration” value (“(b) Bacteriostatic activity” below) is reported as 2~4 ppm; the “(c) Bactericidal activity, concentration” value was found to be 4 ppm>.
With `O=C(O)c1ccccc1` [Benzoic acid], the “(a) Antiproliferative activity” value in the experiment on S. aureus 209P (setting [4]) and with E. coli O-157 [2] was 25~200 ppm each time. Besides, the “(b) Bacteriostatic activity” value in the experiment with S. aureus 209P (setting [4]) and with E. coli O-157 [2] was 180 ppm> in each case. Moreover, the Death rate amounted to 0 in experiment [3] (50 ppm, 5 min); 0 in experiment [3] (50 ppm, 10 min); 0 in experiment [3] (50 ppm, 15 min); 1 in experiment [3] (50 ppm, 30 min); 5 in experiment [3] (50 ppm, 60 min); 10 in experiment [3] (50 ppm, 90 min). Also, the Death rate amounted to 12 in experiment [3] (50 ppm, 120 min); 0 in experiment [3] (200 ppm, 5 min); 0 in experiment [3] (200 ppm, 10 min); 0 in experiment [3] (200 ppm, 15 min); 2 in experiment [3] (200 ppm, 30 min); 7 in experiment [3] (200 ppm, 60 min). Also, the Death rate in experiment [3] (200 ppm, 90 min) was 10; in experiment [3] (200 ppm, 120 min), 12; in experiment [3] (500 ppm, 5 min) it was 0; in experiment [3] (500 ppm, 10 min) it was 0; in experiment [3] (500 ppm, 15 min), 1; in experiment [3] (500 ppm, 30 min) it was 3. In addition, the Death rate turned out to be 8 in experiment [3] (500 ppm, 60 min); 12 in experiment [3] (500 ppm, 90 min); 15 in experiment [3] (500 ppm, 120 min).
For `O.O.O.O.O.O.[Cl-].[Cl-].[Co+2]` [Co^2+, CoCl2•6H2O], in the experiment on E. coli O-157 [1], the “(a) Antiproliferative activity” value is given as 100~250 ppm; the “(b) Bacteriostatic activity” value was 220~500 ppm; the “(c) Bactericidal activity, concentration” value is recorded as 500 ppm>; the “Acceleration of growth, concentration” value is reported as 25 ppm<. Moreover, in the experiment with S. aureus 209P (metal ion in growth medium), the “(c) Bactericidal activity, concentration” value is on record as 500 ppm> and the “Acceleration of growth, concentration” value was determined as 20 ppm<.
Regarding `CCOC(=O)c1ccc(O)cc1` [Ethyl para-hydroxybenzoate], the “(a) Antiproliferative activity” value with S. aureus 209P (setting [4]) is reported as 50~300 ppm; in the experiment on E. coli O-157 [2] it was 40~300 ppm. Besides, the “(b) Bacteriostatic activity” value in the experiment on S. aureus 209P (setting [4]) is recorded as 250 ppm>; in the experiment with E. coli O-157 [2], 230 ppm>. The Death rate is given as 0 in experiment [3] (50 ppm, 5 min); 0 in experiment [3] (50 ppm, 10 min); 0 in experiment [3] (50 ppm, 15 min); 2 in experiment [3] (50 ppm, 30 min); 5 in experiment [3] (50 ppm, 60 min); 8 in experiment [3] (50 ppm, 90 min). Further, the Death rate in experiment [3] (50 ppm, 120 min) was determined as 12; in experiment [3] (200 ppm, 5 min) it was 0; in experiment [3] (200 ppm, 10 min), 0; in experiment [3] (200 ppm, 15 min) it was 0; in experiment [3] (200 ppm, 30 min), 2; in experiment [3] (200 ppm, 60 min) it was 5. For the same compound, the Death rate is reported as 10 in experiment [3] (200 ppm, 90 min); 12 in experiment [3] (200 ppm, 120 min); 0 in experiment [3] (500 ppm, 5 min); 0 in experiment [3] (500 ppm, 10 min); 0 in experiment [3] (500 ppm, 15 min); 2 in experiment [3] (500 ppm, 30 min). The Death rate came to 7 in experiment [3] (500 ppm, 60 min); 12 in experiment [3] (500 ppm, 90 min); 15 in experiment [3] (500 ppm, 120 min).
For `O.O.O.O.O.O.O.O=S(=O)([O-])[O-].[Ni+2]` [Ni^2+, NiSO4•7H2O], in the experiment with E. coli O-157 [1], the “(a) Antiproliferative activity” value is recorded as 20~170 ppm; the “(b) Bacteriostatic activity” value is on record as 150~350 ppm; the “(c) Bactericidal activity, concentration” value is given as 350 ppm>; the “Acceleration of growth, concentration” value was determined as 10 ppm<. For the same compound, in the experiment with S. aureus 209P (metal ion in growth medium), the “(a) Antiproliferative activity” value was 25~150 ppm; the “(b) Bacteriostatic activity” value is given as 120~300 ppm; the “(c) Bactericidal activity, concentration” value worked out at 300 ppm>; the “Acceleration of growth, concentration” value is given as 5 ppm<.
In the case of `C/C=C/C=C/C(=O)[O-].[K+]` [Potassium sorbate], the “(a) Antiproliferative activity” value with S. aureus 209P (setting [4]) is recorded as 35~250 ppm; in the experiment with E. coli O-157 [2], 30~250 ppm. The “(b) Bacteriostatic activity” value was 200 ppm> in the experiment on S. aureus 209P (setting [4]) and 250 ppm> in the experiment with E. coli O-157 [2]. In addition, the Death rate in experiment [3] (50 ppm, 5 min) was 0; in experiment [3] (50 ppm, 10 min), 0; in experiment [3] (50 ppm, 15 min), 0; in experiment [3] (50 ppm, 30 min), 2; in experiment [3] (50 ppm, 60 min), 5; in experiment [3] (50 ppm, 90 min), 8. For the same compound, the Death rate in experiment [3] (50 ppm, 120 min) was found to be 12; in experiment [3] (200 ppm, 5 min) it was 0; in experiment [3] (200 ppm, 10 min), 0; in experiment [3] (200 ppm, 15 min), 0; in experiment [3] (200 ppm, 30 min), 2; in experiment [3] (200 ppm, 60 min) it was 6. The Death rate in experiment [3] (200 ppm, 90 min) is on record as 10; in experiment [3] (200 ppm, 120 min), 15; in experiment [3] (500 ppm, 5 min), 0; in experiment [3] (500 ppm, 10 min) it was 0; in experiment [3] (500 ppm, 15 min), 1; in experiment [3] (500 ppm, 30 min), 3. Moreover, the Death rate in experiment [3] (500 ppm, 60 min) turned out to be 7; in experiment [3] (500 ppm, 90 min), 12; in experiment [3] (500 ppm, 120 min), 18.
In the case of `O=C([O-])c1ccccc1.[Na+]` [Sodium benzoate], the “(a) Antiproliferative activity” value in the experiment with S. aureus 209P (setting [4]) and in the experiment with E. coli O-157 [2] was 40~300 ppm throughout. Moreover, the “(b) Bacteriostatic activity” value in the experiment on S. aureus 209P (setting [4]) is 250 ppm>; in the experiment with E. coli O-157 [2], 220 ppm>. Moreover, the Death rate in experiment [3] (50 ppm, 5 min) amounted to 0; in experiment [3] (50 ppm, 10 min), 0; in experiment [3] (50 ppm, 15 min) it was 0; in experiment [3] (50 ppm, 30 min) it was 2; in experiment [3] (50 ppm, 60 min), 5; in experiment [3] (50 ppm, 90 min), 8. Further, the Death rate in experiment [3] (50 ppm, 120 min) is 10; in experiment [3] (200 ppm, 5 min), 0; in experiment [3] (200 ppm, 10 min) it was 0; in experiment [3] (200 ppm, 15 min), 0; in experiment [3] (200 ppm, 30 min) it was 2; in experiment [3] (200 ppm, 60 min) it was 5. The Death rate in experiment [3] (200 ppm, 90 min) is reported as 10; in experiment [3] (200 ppm, 120 min) it was 12; in experiment [3] (500 ppm, 5 min), 0; in experiment [3] (500 ppm, 10 min), 0; in experiment [3] (500 ppm, 15 min), 1; in experiment [3] (500 ppm, 30 min) it was 3. Moreover, the Death rate was found to be 8 in experiment [3] (500 ppm, 60 min); 12 in experiment [3] (500 ppm, 90 min); 15 in experiment [3] (500 ppm, 120 min).
As to `C/C=C/C=C/C(=O)O` [Sorbic acid], the “(a) Antiproliferative activity” value in the experiment with S. aureus 209P (setting [4]) and in the experiment on E. coli O-157 [2] was 20~200 ppm in each case. For the same compound, the “(b) Bacteriostatic activity” value in the experiment with S. aureus 209P (setting [4]) is 150 ppm>; with E. coli O-157 [2], 200 ppm>. Further, the Death rate in experiment [3] (50 ppm, 5 min) came to 0; in experiment [3] (50 ppm, 10 min), 0; in experiment [3] (50 ppm, 15 min), 0; in experiment [3] (50 ppm, 30 min) it was 2; in experiment [3] (50 ppm, 60 min), 5; in experiment [3] (50 ppm, 90 min), 10. Also, the Death rate is 15 in experiment [3] (50 ppm, 120 min); 0 in experiment [3] (200 ppm, 5 min); 0 in experiment [3] (200 ppm, 10 min); 0 in experiment [3] (200 ppm, 15 min); 2 in experiment [3] (200 ppm, 30 min); 7 in experiment [3] (200 ppm, 60 min). Moreover, the Death rate in experiment [3] (200 ppm, 90 min) came to 12; in experiment [3] (200 ppm, 120 min), 18; in experiment [3] (500 ppm, 5 min) it was 0; in experiment [3] (500 ppm, 10 min), 0; in experiment [3] (500 ppm, 15 min), 1; in experiment [3] (500 ppm, 30 min), 3. The Death rate in experiment [3] (500 ppm, 60 min) came out at 10; in experiment [3] (500 ppm, 90 min) it was 15; in experiment [3] (500 ppm, 120 min) it was 20.
For `O.O.O.O.O.O.O.O=S(=O)([O-])[O-].[Zn+2]` [Zn^2+, ZnSO4•7H2O], in the experiment on E. coli O-157 [1], the “(a) Antiproliferative activity” value is 10~15 ppm; the “(b) Bacteriostatic activity” value is recorded as 15~250 ppm; the “(c) Bactericidal activity, concentration” value is 250 ppm>; the “Acceleration of growth, concentration” value came to 10 ppm<. Besides, in the experiment with S. aureus 209P (metal ion in growth medium), the “(a) Antiproliferative activity” value was 12~18 ppm; the “(b) Bacteriostatic activity” value is 16~200 ppm; the “(c) Bactericidal activity, concentration” value is on record as 200 ppm>; the “Acceleration of growth, concentration” value amounted to 10 ppm<.
